The experiment concerns the target T1, BCAT2 (Homo sapiens, UniProt O15382).
T1 sequence (O15382 28-392): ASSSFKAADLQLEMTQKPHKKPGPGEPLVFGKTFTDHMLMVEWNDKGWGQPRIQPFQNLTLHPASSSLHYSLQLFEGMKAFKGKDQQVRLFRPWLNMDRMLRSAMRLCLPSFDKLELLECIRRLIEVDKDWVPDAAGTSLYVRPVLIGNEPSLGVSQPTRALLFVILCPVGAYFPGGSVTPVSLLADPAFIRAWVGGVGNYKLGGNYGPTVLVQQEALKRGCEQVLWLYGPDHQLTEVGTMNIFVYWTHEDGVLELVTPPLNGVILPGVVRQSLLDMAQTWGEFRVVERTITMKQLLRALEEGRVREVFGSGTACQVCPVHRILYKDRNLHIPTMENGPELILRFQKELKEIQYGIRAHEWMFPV
Description: BCAT2 in vitro enzyme inhibition assay (resazurin/diaphorase-coupled fluorescence). The format is biochemical. As to conditions: average where tested multiple times. How it is done: BCAT2 In Vitro Enzyme Inhibition Assay
1.67× hBCAT2 Enzyme Mix: 0.33 μg/mL hBCAT2, 1× Buffer
2.5× Substrate Mix: 460 μM L-leucine, 420 μM α-KetoGlutarate, 10 U/mL glutamate dehydrogenase, 10 mM NAD, 30 μg/mL diaphorase, 20 μm Resazurin
BCAT2 enzyme stock solution was diluted to prepare a 1.67× hBCAT2 Enzyme Mix. 1 μL of test compound was first added to the reaction wells followed by 30 μL of 1.67× hBCAT2 Enzyme Mix and incubated at room temperature (25° C.) for one hour. Meanwhile the Substrate Mix was prepared. The reaction was initiated by the addition of 20 μL of the 2.5× Substrate Mix, bringing the final reaction mix of all components to 1×. Reactions were quenched after one hour by the addition of 25 μL of 6% SDS and reaction progress was measured via fluorescence read (Ex 540/Em 590).
Test Compound Preparation:
Test compounds were prepared at 50× final concentration in DMSO, 1 to 3 dilutions were made for 10 points. The compounds were added to the assay as a 1 to 50 dilution (1 μL in 50 μL) to yield a top assay final concentration of 100 μM, decreasing 3-fold for 10 points. Each compound dilution series test also included an assay max (1 μL DMSO Added in lieu of compound, Full Reaction Components Included) and Min (1 μL DMSO Added in lieu of compound, 30 μl of 1.67× hBCAT2 Enzyme Mix replated by 30 μL of 1× Buffer). All tests were performed in technical duplicate.
Where a compound was tested multiple times, the average value of the tests is reported.
A general note: The colour change of resazurin is a common sign of viable cells or microbes.

As a reminder, the IC50 is the midpoint of a concentration-inhibition curve. For `O=C(NC1COCC(n2c(-c3ncccc3F)nc3cnc(-n4ccnn4)cc32)C1)c1ncc(C(F)F)s1` (single isomer, unassigned) [Example 145, 5-(difluoromethyl)-N-(5-(2-(3-fluoropyridin-2-yl)-6-(1H-1,2,3-triazol-1-yl)-1H-imidazo[4,5-c]pyridin-1-yl)tetrahydro-2H-pyran-3-yl)thiazole-2-carboxamide], the IC50 was > 1000 nM. As for `O=C(NC1COCC(n2c(-c3ccccn3)nc3cnc(-n4ccnn4)cc32)C1)c1ncc(C(F)F)s1` (single isomer, unassigned) [Example 147, 5-(difluoromethyl)-N-(5-(2-(pyridin-2-yl)-6-(1H-1,2,3-triazol-1-yl)-1H-imidazo[4,5-c]pyridin-1-yl)tetrahydro-2H-pyran-3-yl)thiazole-2-carboxamide], the IC50 is > 1000 nM. As for `CC(C)Cc1nc2cnc(-c3ccn(C(F)F)n3)cc2n1[C@H]1C[C@H](O)C[C@@H](NC(=O)c2ncc(Cl)s2)C1` (single isomer, unassigned) [Example 212], the IC50 was > 1000 nM. For `CO[C@@H]1C[C@@H](NC(=O)c2ncc(Cl)s2)C[C@@H](n2c(CC(C)C)nc3cnc(-n4nccn4)cc32)C1` (single isomer, unassigned) [Example 422], the IC50 is > 1000 nM. The compound `CO[C@@H]1C[C@@H](NC(=O)c2ccc(Cl)s2)C[C@@H](n2c(CC(C)C)nc3cnc(-c4ncccn4)cc32)C1` (single isomer, unassigned) [Example 438] came in with an IC50 of 100 to 500 nM. `CO[C@H]1C[C@H](NC(=O)c2ncc(Cl)s2)C[C@H](n2c(-c3ccccc3F)nc3cnc(-n4nccn4)cc32)C1` (stereo in doubt) [Example 423, 5-chloro-N-((1R,3S,5S)-3-(2-(2-fluorophenyl)-6-(2H-1,2,3-triazol-2-yl)-1H-imidazo[4,5-c]pyridin-1-yl)-5-methoxycyclohexyl)thiazole-2-carboxamide]: the concentration for half-maximal inhibition (IC50) is 500 to 1000 nM. Regarding `CO[C@H]1C[C@H](NC(=O)c2ncc(Cl)s2)C[C@H](n2c(CC(C)C)nc3cnc(-c4ccccn4)cc32)C1` (stereo in doubt) [Example 425, 5-chloro-N-((1R,3S,5S)-3-(2-isobutyl-6-(pyridin-2-yl)-1H-imidazo[4,5-c]pyridin-1-yl)-5-methoxycyclohexyl)thiazole-2-carboxamide], the IC50 was > 1000 nM. In the case of `CO[C@H]1C[C@H](NC(=O)c2ncc(Cl)s2)C[C@H](n2c(-c3ccccc3C#N)nc3cnc(-c4nc[nH]n4)cc32)C1` (stereo in doubt) [Example 445, 5-chloro-N-((1R,3S,5S)-3-(2-(2-cyanophenyl)-6-(1H-1,2,4-triazol-3-yl)-1H-imidazo[4,5-c]pyridin-1-yl)-5-methoxycyclohexyl)thiazole-2-carboxamide] it was 100 to 500 nM; in that of `CC(C)Cc1nc2cnc(-c3nc[nH]n3)cc2n1[C@H]1C[C@@H](NC(=O)c2ccc(Cl)s2)CC(F)(F)C1` (stereo in doubt) [Example 453, 5-chloro-N-((1R,5S)-3,3-difluoro-5-(2-isobutyl-6-(1H-1,2,4-triazol-3-yl)-1H-imidazo[4,5-c]pyridin-1-yl)cyclohexyl)thiophene-2-carboxamide], 100 to 500 nM. Regarding `CC(C)[C@@H](N)c1nc2cnc(-c3ccccn3)cc2n1[C@@H]1CCC[C@H](NC(=O)c2ncc(Cl)s2)C1` [Example 167, N-((1S,3R)-3-(2-((R)-1-amino-2-methylpropyl)-6-(pyridin-2-yl)-1H-imidazo[4,5-c]pyridin-1-yl)cyclohexyl)-5-chlorothiazole-2-carboxamide], the IC50 is 100 to 500 nM.

Turning to `O=C(N[C@H]1CCC[C@@H](n2c(C3CNCCO3)nc3cnc(-c4nc[nH]n4)cc32)C1)c1ncc(Cl)s1` (stereo partly drawn) [Example 174, 5-chloro-N-((1S,3R)-3-(2-(morpholin-2-yl)-6-(1H-1,2,4-triazol-3-yl)-1H-imidazo[4,5-c]pyridin-1-yl)cyclohexyl)thiazole-2-carboxamide], the IC50 was > 1000 nM. The result for `C[C@H]1CCCN1c1cc2c(cn1)nc(-c1ccccc1F)n2[C@@H]1CCC[C@H](NC(=O)c2ncc(Cl)s2)C1` [Example 194, 5-chloro-N-((1S,3R)-3-(2-(2-fluorophenyl)-6-((S)-2-methylpyrrolidin-1-yl)-1H-imidazo[4,5-c]pyridin-1-yl)cyclohexyl)thiazole-2-carboxamide] reads 500 to 1000 nM; that for `COC[C@@H]1CCCN1c1cc2c(cn1)nc(-c1ccccc1F)n2[C@@H]1CCC[C@H](NC(=O)c2ncc(Cl)s2)C1` [Example 197, 5-chloro-N-((1S,3R)-3-(2-(2-fluorophenyl)-6-((S)-2-(methoxymethyl)pyrrolidin-1-yl)-1H-imidazo[4,5-c]pyridin-1-yl)cyclohexyl)thiazole-2-carboxamide], > 1000 nM.

Take `CC(C)Cc1nc2cnc(-n3cc(F)cn3)cc2n1[C@H]1C[C@H](O)C[C@@H](NC(=O)c2ncc(Cl)s2)C1` [Example 222, 5-chloro-N-((1S,3R,5R)-3-(6-(4-fluoro-1H-pyrazol-1-yl)-2-isobutyl-1H-imidazo[4,5-c]pyridin-1-yl)-5-hydroxycyclohexyl)thiazole-2-carboxamide]: the IC50 is > 1000 nM. For the compound `CC(C)Cc1nc2cnc(-c3ccn(C)n3)cc2n1[C@H]1CCC[C@@H](NC(=O)c2ncc(Cl)s2)[C@@H]1O` [Example 224, 5-chloro-N-((1R,2S,3S)-2-hydroxy-3-(2-isobutyl-6-(1-methyl-1H-pyrazol-3-yl)-1H-imidazo[4,5-c]pyridin-1-yl)cyclohexyl)thiazole-2-carboxamide], the IC50 is > 1000 nM.

Consider `CC(C)Cc1nc2cnc(-c3ccn[nH]3)cc2n1[C@H]1CCC[C@@H](NC(=O)c2ncc(Cl)s2)[C@@H]1O` [Example 226, 5-chloro-N-((1R,2S,3S)-2-hydroxy-3-(2-isobutyl-6-(1H-pyrazol-5-yl)-1H-imidazo[4,5-c]pyridin-1-yl)cyclohexyl)thiazole-2-carboxamide], for which the half-inhibitory concentration (IC50) is > 1000 nM. With `CC(C)Cc1nc2cnc(-n3nccn3)cc2n1[C@H]1CCC[C@@H](NC(=O)c2ncc(Cl)s2)[C@@H]1O` [Example 228, 5-chloro-N-((1R,2S,3S)-2-hydroxy-3-(2-isobutyl-6-(2H-1,2,3-triazol-2-yl)-1H-imidazo[4,5-c]pyridin-1-yl)cyclohexyl)thiazole-2-carboxamide], the IC50 is > 1000 nM. Consider `CC(=O)N1CC(NC(=O)c2ccc(Br)s2)CC(n2c(-c3ccccn3)nc3ccc(-c4nnco4)cc32)C1` (centres unmarked) [Example 285, N-(5-(6-(1,3,4-oxadiazol-2-yl)-2-(pyridin-2-yl)-1H-benzo[d]imidazol-1-yl)-1-acetylpiperidin-3-yl)-5-bromothiophene-2-carboxamide], for which the IC50 was ≤ 100 nM.

`O=C(N[C@H]1CCC[C@@H](n2c(-c3ccccc3F)nc3cnc(-n4ccccc4=O)cc32)C1)c1ncc(Cl)s1` [Example 357, 5-chloro-N-((1S,3R)-3-(2-(2-fluorophenyl)-6-(2-oxopyridin-1(2H)-yl)-1H-imidazo[4,5-c]pyridin-1-yl)cyclohexyl)thiazole-2-carboxamide] gave an IC50 of 500 to 1000 nM. The result for `CC(O)Cc1nc2cnc(-c3ccccn3)cc2n1[C@@H]1CCC[C@H](NC(=O)c2ncc(Cl)s2)C1` (stereo partly drawn) [Example 360, 5-chloro-N-((1S,3R)-3-(2-(2-hydroxypropyl)-6-(pyridin-2-yl)-1H-imidazo[4,5-c]pyridin-1-yl)cyclohexyl)thiazole-2-carboxamide] reads > 1000 nM; that for `CC(C)Cc1nc2cnc(-c3ncc[nH]3)cc2n1[C@@H]1CCC[C@H](NC(=O)c2ncc(Cl)s2)C1` [Example 361, N-((1S,3R)-3-(6-(1H-imidazol-2-yl)-2-isobutyl-1H-imidazo[4,5-c]pyridin-1-yl)cyclohexyl)-5-chlorothiazole-2-carboxamide], ≤ 100 nM; that for `CC(=O)Cc1nc2cnc(-c3ccccn3)cc2n1[C@@H]1CCC[C@H](NC(=O)c2ncc(Cl)s2)C1` [Example 362, 5-chloro-N-((1S,3R)-3-(2-(2-oxopropyl)-6-(pyridin-2-yl)-1H-imidazo[4,5-c]pyridin-1-yl)cyclohexyl)thiazole-2-carboxamide], > 1000 nM. Take `CC(=O)N[C@H](c1nc2cnc(-c3nc[nH]n3)cc2n1[C@@H]1CCC[C@H](NC(=O)c2ncc(Cl)s2)C1)C(C)C` [Example 368, N-((1S,3R)-3-(2-((S)-1-acetamido-2-methylpropyl)-6-(1H-1,2,4-triazol-3-yl)-1H-imidazo[4,5-c]pyridin-1-yl)cyclohexyl)-5-chlorothiazole-2-carboxamide]: the IC50 was > 1000 nM.

Values taken from patent publication US20260159512A1, “BCAT2 INHIBITORS” (AGIOS PHARMACEUTICALS, INC., priority 2021, published 2026).
